Columns and labels:
human serum albumin = molecular target: T1, human serum albumin (Homo sapiens, UniProt P02768); assay: fluorescence polarization, direct titration of dye with protein; type: binding
T1 construct: gene ALB; purchased human albumin, EMD Millipore (Calbiochem)

transferrin = molecular target: T2, transferrin (Homo sapiens, UniProt P02787); assay: as above; type: binding
T2 construct: gene TF; purchased from Sigma Aldrich
T2 sequence (P02787 20-698): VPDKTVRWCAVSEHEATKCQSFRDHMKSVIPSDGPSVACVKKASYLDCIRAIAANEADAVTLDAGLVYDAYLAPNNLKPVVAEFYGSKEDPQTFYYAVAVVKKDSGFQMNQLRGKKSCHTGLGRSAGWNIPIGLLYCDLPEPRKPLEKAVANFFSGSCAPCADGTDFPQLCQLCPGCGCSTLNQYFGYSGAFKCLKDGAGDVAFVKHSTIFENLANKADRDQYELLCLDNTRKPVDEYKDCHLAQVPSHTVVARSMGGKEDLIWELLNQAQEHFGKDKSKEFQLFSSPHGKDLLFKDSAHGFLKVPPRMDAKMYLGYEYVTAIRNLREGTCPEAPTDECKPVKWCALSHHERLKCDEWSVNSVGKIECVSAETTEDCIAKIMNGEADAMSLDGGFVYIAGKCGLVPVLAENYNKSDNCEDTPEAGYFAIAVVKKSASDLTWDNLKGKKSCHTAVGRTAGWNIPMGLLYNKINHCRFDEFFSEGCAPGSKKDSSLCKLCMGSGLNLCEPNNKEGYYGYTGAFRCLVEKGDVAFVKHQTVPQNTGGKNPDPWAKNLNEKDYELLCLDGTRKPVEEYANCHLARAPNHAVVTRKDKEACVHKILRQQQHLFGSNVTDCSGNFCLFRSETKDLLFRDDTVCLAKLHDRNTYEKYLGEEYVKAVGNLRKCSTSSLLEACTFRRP

T1 sequence (P02768 25-609): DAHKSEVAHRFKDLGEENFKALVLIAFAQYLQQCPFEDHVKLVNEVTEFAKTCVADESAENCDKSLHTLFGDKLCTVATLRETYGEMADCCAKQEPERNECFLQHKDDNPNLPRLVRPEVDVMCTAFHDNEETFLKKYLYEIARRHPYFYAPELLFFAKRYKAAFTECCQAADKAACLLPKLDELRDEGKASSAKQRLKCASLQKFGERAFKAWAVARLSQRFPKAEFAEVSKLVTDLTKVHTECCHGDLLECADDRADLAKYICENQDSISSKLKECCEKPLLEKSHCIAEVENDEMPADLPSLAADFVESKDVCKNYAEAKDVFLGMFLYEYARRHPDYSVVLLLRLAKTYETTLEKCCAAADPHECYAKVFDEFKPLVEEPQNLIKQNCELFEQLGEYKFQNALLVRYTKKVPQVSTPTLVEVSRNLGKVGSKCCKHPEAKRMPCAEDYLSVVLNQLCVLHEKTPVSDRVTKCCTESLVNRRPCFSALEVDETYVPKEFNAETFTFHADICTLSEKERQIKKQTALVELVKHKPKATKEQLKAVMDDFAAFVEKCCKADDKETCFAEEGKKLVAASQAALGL

SMILES	Kd (human serum albumin)	Kd (transferrin)
CN1/C(=C/C=C/C=C/C2=[N+](CCCCCC(=O)O)c3ccccc3C2(C)C)C(C)(C)c2ccccc21 [Cy5]	44.8 µM	46.1 µM
N=c1ccc2c(-c3ccc(C(=O)O)cc3C(=O)O)c3ccc(N)c(S(=O)(=O)O)c3oc-2c1S(=O)(=O)O [Alexa Fluor 488]	791 µM	380 µM
CN1/C(=C/C=C/C=C/C2=[N+](CCCCCC(=O)O)c3ccc(S(=O)(=O)O)cc3C2(C)C)C(C)(C)c2cc(S(=O)(=O)O)ccc21 [sCy5]	568 µM	2020 µM
O=C(O)c1ccccc1-c1c2ccc(=O)cc-2oc2cc(O)ccc12 [fluorescein]	138 µM	502 µM

Reference: paper PMC6379706, “Characterization of the interactions of chemically-modified therapeutic nucleic acids with plasma proteins using a fluorescence polarization assay” (Nucleic Acids Research, 2018)
